This is an account of results in patent publication US20240376084A1, “INHIBITORS OF ALPHA-HEMOLYSIN OF STAPHYLOCOCCUS AUREUS” (Helmholtz-Zentrum Fur Infektionsforschung GmbH, priority 2021, published 2024).

The target of test [1] is hemolysin alpha from Staphylococcus aureus (Staphylococcus aureus, UniProt P09616). Briefly: cell-based.
The target of test [2] is S. aureus Alpha hemolysin (Staphylococcus aureus, UniProt P09616). Briefly: cell-based.

The structures appear in SMILES notation.

hemolysin alpha from Staphylococcus aureus, sequence (P09616 27-319 limits assumed): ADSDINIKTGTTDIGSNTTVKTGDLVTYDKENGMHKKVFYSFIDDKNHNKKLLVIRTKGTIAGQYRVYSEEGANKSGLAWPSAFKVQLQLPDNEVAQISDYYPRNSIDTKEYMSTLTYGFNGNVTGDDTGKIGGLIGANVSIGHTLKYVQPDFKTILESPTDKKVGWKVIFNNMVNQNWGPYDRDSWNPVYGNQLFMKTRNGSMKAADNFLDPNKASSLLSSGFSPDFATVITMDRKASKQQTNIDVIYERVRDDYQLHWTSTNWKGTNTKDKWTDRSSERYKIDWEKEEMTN
S. aureus Alpha hemolysin, sequence (P09616 27-319 limits assumed): as above

As for `Cc1cc2[nH]c(=O)c(=O)[nH]c2cc1S(=O)(=O)Nc1ccc(-c2ccc(C#N)cc2)c(Br)c1` [Compound 298, N-[3-bromo-4-(4-cyanophenyl)phenyl]-7-methyl-2,3-dioxo-1,4-dihydroquinoxaline-6-sulfonamide], the half-maximal effective concentration (EC50) in test [1] was below 30 nM; in test [2] (A549-LDH Assay activity) it was 30 to 100 nM.
As for `CC(C)(C)c1ccc(NS(=O)(=O)c2cc3[nH]c(=O)c(=O)[nH]c3cc2Cl)cc1` [Compound 173, N-(4-(tert-butyl)phenyl)-7-chloro-2,3-dioxo-1,2,3,4-tetrahydroquinoxaline-6-sulfonamide], the IC50 in test [1] is 100 to 1000 nM. In test [2] (A549-LDH Assay activity), this compound gave a concentration giving a half-maximal response (EC50) of 30 to 100 nM.
On to `Cc1cc2[nH]c(=O)c(=O)[nH]c2cc1S(=O)(=O)Nc1ccc(-c2ccc3c(c2)CCNC3=O)c(Cl)c1` [Compound 334, N-[3-chloro-4-(1-oxo-3,4-dihydro-2H-isoquinolin-6-yl)phenyl]-7-methyl-2,3-dioxo-1,4-dihydroquinoxaline-6-sulfonamide], for which the concentration for a half-maximal effect (EC50) was in the range of 100 to 1000 nM in test [1] and 1000 to 6000 nM in test [2] (A549-LDH Assay activity).
For the compound `O=c1[nH]c2cc(Cl)c(S(=O)(=O)Nc3ccc(-c4cccc(N5CCCC5)c4)c(Cl)c3)cc2[nH]c1=O` [Compound 21, 7-chloro-N-(2-chloro-3′-(pyrrolidin-1-yl)-[1,1′-biphenyl]-4-yl)-2,3-dioxo-1,2,3,4-tetrahydroquinoxaline-6-sulfonamide], in test [1], the concentration for half-maximal inhibition (IC50) was below 30 nM. The compound further had a 50% effective concentration (EC50) in test [2] (A549-LDH Assay activity) of 100 to 1000 nM.
The matching figures for `Cc1cc2[nH]c(=O)c(=O)[nH]c2cc1S(=O)(=O)Nc1ccc(-c2ccc(F)cc2)c(Cl)c1` [Compound 3, N-(2-chloro-4′-fluoro-[1,1′-biphenyl]-4-yl)-7-methyl-2,3-dioxo-1,2,3,4-tetrahydroquinoxaline-6-sulfonamide]: below 30 nM and 30 to 100 nM.
Regarding `Cc1cc2[nH]c(=O)c(=O)[nH]c2cc1S(=O)(=O)Nc1ccc(-c2cccc(S(=O)(=O)N(C)C)c2)c(Cl)c1` [Compound 335, N-[3-chloro-4-[3-(dimethylsulfamoyl)phenyl]phenyl]-7-methyl-2,3-dioxo-1,4-dihydroquinoxaline-6-sulfonamide], the concentration for a half-maximal effect (EC50) in test [1] was 100 to 1000 nM; in test [2] (A549-LDH Assay activity) it was 1000 to 6000 nM.
`Cc1cc2[nH]c(=O)c(=O)[nH]c2cc1S(=O)(=O)Nc1ccc(-c2ccc(C#N)cc2)c(C(F)(F)F)c1` [Compound 348, N-[4-(4-cyanophenyl)-3-(trifluoromethyl)phenyl]-7-methyl-2,3-dioxo-1,4-dihydroquinoxaline-6-sulfonamide]: the EC50 in test [1] is below 30 nM; in test [2] (A549-LDH Assay activity), 100 to 1000 nM.
The corresponding values for `Cc1cc2[nH]c(=O)c(=O)[nH]c2cc1S(=O)(=O)Nc1ccc(-c2cccc(N3CCN(C)CC3)c2)c(Cl)c1` [Compound 330, N-[3-chloro-4-[3-(4-methylpiperazin-1-yl)phenyl]phenyl]-7-methyl-2,3-dioxo-1,4-dihydroquinoxaline-6-sulfonamide] are 100 to 1000 nM and 100 to 1000 nM.
In test [1], `CCc1cc2[nH]c(=O)c(=O)[nH]c2cc1S(=O)(=O)Nc1ccc(OC(F)(F)F)cc1` [Compound 20, 7-ethyl-2,3-dioxo-N-(4-(trifluoromethoxy)phenyl)-1,2,3,4-tetrahydroquinoxaline-6-sulfonamide] returned a half-maximal inhibitory concentration (IC50) below 30 nM. For the same compound, the EC50 in test [2] (A549-LDH Assay activity) fell in the range of 30 to 100 nM.
`Cc1cc2[nH]c(=O)c(=O)[nH]c2cc1S(=O)(=O)Nc1ccc(-c2c(F)cccc2F)c(Cl)c1` [Compound 308, N-[3-chloro-4-(2,6-difluorophenyl)phenyl]-7-methyl-2,3-dioxo-1,4-dihydroquinoxaline-6-sulfonamide]: the EC50 in test [1] and in test [2] (A549-LDH Assay activity) was 30 to 100 nM each time.
In the case of `Cc1ccc(-c2ccc(NS(=O)(=O)c3cc4[nH]c(=O)c(=O)[nH]c4cc3Cl)cc2Cl)o1` [Compound 146, 7-chloro-N-(3-chloro-4-(5-methylfuran-2-yl)phenyl)-2,3-dioxo-1,2,3,4-tetrahydroquinoxaline-6-sulfonamide], in test [1], the half-inhibitory concentration (IC50) was 100 to 1000 nM. In test [2] (A549-LDH Assay activity), the EC50 was in the range of 1000 to 6000 nM.
In the case of `COc1ccc(-c2ncc(NS(=O)(=O)c3cc4[nH]c(=O)c(=O)[nH]c4cc3C)cc2Cl)cc1F` [Compound 303, N-[5-chloro-6-(3-fluoro-4-methoxy-phenyl)-3-pyridyl]-7-methyl-2,3-dioxo-1,4-dihydroquinoxaline-6-sulfonamide], the EC50 in test [1] and in test [2] (A549-LDH Assay activity) was 100 to 1000 nM each time.
For the compound `Cc1cc2[nH]c(=O)c(=O)[nH]c2cc1S(=O)(=O)Nc1ccc(-c2ccc3c(c2)CCN3C)c(Cl)c1` [Compound 341, N-[3-chloro-4-(1-methylindolin-5-yl)phenyl]-7-methyl-2,3-dioxo-1,4-dihydroquinoxaline-6-sulfonamide], the EC50 in test [1] was in the range of 100 to 1000 nM; in test [2] (A549-LDH Assay activity), 1000 to 6000 nM.
With `Cc1cc2[nH]c(=O)c(=O)[nH]c2cc1S(=O)(=O)Nc1ccc(-c2ccc3c(C)c[nH]c3c2)c(Cl)c1` [Compound 352, N-[3-chloro-4-(3-methyl-1H-indol-6-yl)phenyl]-7-methyl-2,3-dioxo-1,4-dihydroquinoxaline-6-sulfonamide], the EC50 in test [1] and in test [2] (A549-LDH Assay activity) was 100 to 1000 nM in each case.
The compound `Cc1cc2[nH]c(=O)c(=O)[nH]c2cc1S(=O)(=O)Nc1ccc(C(C)C)cc1` [Compound 76, N-(4-isopropylphenyl)-7-methyl-2,3-dioxo-1,2,3,4-tetrahydroquinoxaline-6-sulfonamide] had an IC50 in test [1] of 100 to 1000 nM. Also, the EC50 in test [2] (A549-LDH Assay activity) lay within 100 to 1000 nM.
In test [1], `O=c1[nH]c2cc(F)c(S(=O)(=O)Nc3ccc(-c4ccccc4)cc3)cc2[nH]c1=O` [Compound 64, N-([1,1′-biphenyl]-4-yl)-7-fluoro-2,3-dioxo-1,2,3,4-tetrahydroquinoxaline-6-sulfonamide] gave an IC50 of 30 to 100 nM. This compound also came in with an EC50 in test [2] (A549-LDH Assay activity) of 100 to 1000 nM.
In turn, `O=c1[nH]c2cc(Cl)c(S(=O)(=O)Nc3ccc(-c4ccccc4)c(Cl)c3)cc2[nH]c1=O` [Compound 14, 7-chloro-N-(2-chloro-[1,1′-biphenyl]-4-yl)-2,3-dioxo-1,2,3,4-tetrahydroquinoxaline-6-sulfonamide] registered an IC50 in test [1] below 30 nM. This compound displayed an EC50 in test [2] (A549-LDH Assay activity) of 100 to 1000 nM.
Regarding `O=c1[nH]c2cc(Cl)c(S(=O)(=O)Nc3ccc(-c4ccc(F)cc4)c(Cl)c3)cc2[nH]c1=O` [Compound 12, 7-chloro-N-(2-chloro-4′-fluoro-[1,1′-biphenyl]-4-yl)-2,3-dioxo-1,2,3,4-tetrahydroquinoxaline-6-sulfonamide], the half-inhibitory concentration (IC50) in test [1] is below 30 nM. The compound also showed a concentration for a half-maximal effect (EC50) in test [2] (A549-LDH Assay activity) of 100 to 1000 nM.
With `Cc1cccc(-c2c(C)cc(NS(=O)(=O)c3cc4[nH]c(=O)c(=O)[nH]c4cc3C)cc2C)c1` [Compound 175, 7-methyl-2,3-dioxo-N-(2,3′,6-trimethyl-[1,1′-biphenyl]-4-yl)-1,2,3,4-tetrahydroquinoxaline-6-sulfonamide], the IC50 in test [1] is 100 to 1000 nM. Further, in test [2] (A549-LDH Assay activity), the EC50 lay within 100 to 1000 nM.
In turn, `Cc1ccccc1-c1ccc(NS(=O)(=O)c2cc3[nH]c(=O)c(=O)[nH]c3cc2C)cc1Cl` [Compound 90, N-(2-chloro-2′-methyl-[1,1′-biphenyl]-4-yl)-7-methyl-2,3-dioxo-1,2,3,4-tetrahydroquinoxaline-6-sulfonamide] came in with a concentration for half-maximal inhibition (IC50) in test [1] of 100 to 1000 nM. Also, the EC50 in test [2] (A549-LDH Assay activity) lay in the range of 100 to 1000 nM.
For `Cc1cc2[nH]c(=O)c(=O)[nH]c2cc1S(=O)(=O)Nc1ccc(-c2ccc3c(c2)OCO3)c(Cl)c1` [Compound 247, N-[4-(1,3-benzodioxol-5-yl)-3-chloro-phenyl]-7-methyl-2,3-dioxo-1,4-dihydroquinoxaline-6-sulfonamide], the results for the concentration giving a half-maximal response (EC50) in test [1] and in test [2] (A549-LDH Assay activity) were below 30 nM and 30 to 100 nM, respectively.
With `Cc1cc2[nH]c(=O)c(=O)[nH]c2cc1S(=O)(=O)Nc1ccc(-c2ccnc(Cl)c2)c(Cl)c1` [Compound 30, N-(3-chloro-4-(2-chloropyridin-4-yl)phenyl)-7-methyl-2,3-dioxo-1,2,3,4-tetrahydroquinoxaline-6-sulfonamide], in test [1], the IC50 is below 30 nM. Moreover, in test [2] (A549-LDH Assay activity), the concentration for a half-maximal effect (EC50) lay within 30 to 100 nM.
The corresponding values for `CCc1ccccc1-c1ccc(NS(=O)(=O)c2cc3[nH]c(=O)c(=O)[nH]c3cc2C)cc1` [Compound 113, N-(2′-ethyl-[1,1′-biphenyl]-4-yl)-7-methyl-2,3-dioxo-1,2,3,4-tetrahydroquinoxaline-6-sulfonamide] are 100 to 1000 nM and 100 to 1000 nM.
For the compound `Cc1cc2[nH]c(=O)c(=O)[nH]c2cc1S(=O)(=O)Nc1ccc(-c2ccc3cccnc3c2)c(Cl)c1` [Compound 351, N-[3-chloro-4-(7-quinolyl)phenyl]-7-methyl-2,3-dioxo-1,4-dihydroquinoxaline-6-sulfonamide], the EC50 in test [1] was below 30 nM; in test [2] (A549-LDH Assay activity), 100 to 1000 nM.
As for `Cc1ccccc1-c1ccc(NS(=O)(=O)c2cc3[nH]c(=O)c(=O)[nH]c3cc2C)cc1` [Compound 89, 7-methyl-N-(2′-methyl-[1,1′-biphenyl]-4-yl)-2,3-dioxo-1,2,3,4-tetrahydroquinoxaline-6-sulfonamide], in test [1], the 50% inhibitory concentration (IC50) is 100 to 1000 nM. In test [2] (A549-LDH Assay activity), this compound registered an EC50 of 100 to 1000 nM.
Take `COc1cc(OC)cc(-c2ccc(NS(=O)(=O)c3cc4[nH]c(=O)c(=O)[nH]c4cc3C)cc2Cl)c1` [Compound 258, N-[3-chloro-4-(3,5-dimethoxyphenyl)phenyl]-7-methyl-2,3-dioxo-1,4-dihydroquinoxaline-6-sulfonamide]: the EC50 in test [1] and in test [2] (A549-LDH Assay activity) was 100 to 1000 nM in each case.
The compound `Cc1cc2[nH]c(=O)c(=O)[nH]c2cc1S(=O)(=O)Nc1cc(C)c(-c2sccc2C)c(C)c1` [Compound 132, N-(3,5-dimethyl-4-(3-methylthiophen-2-yl)phenyl)-7-methyl-2,3-dioxo-1,2,3,4-tetrahydroquinoxaline-6-sulfonamide] returned an IC50 in test [1] of 100 to 1000 nM. Further, the EC50 in test [2] (A549-LDH Assay activity) was in the range of 100 to 1000 nM.
For `Cc1cc2[nH]c(=O)c(=O)[nH]c2cc1S(=O)(=O)Nc1ccc(-c2ccn3ncnc3c2)c(Cl)c1` [Compound 337, N-[3-chloro-4-([1,2,4]triazolo[1,5-a]pyridin-7-yl)phenyl]-7-methyl-2,3-dioxo-1,4-dihydroquinoxaline-6-sulfonamide], the concentration giving a half-maximal response (EC50) in test [1] and in test [2] (A549-LDH Assay activity) was 30 to 100 nM throughout.
Consider `Cc1cc2[nH]c(=O)c(=O)[nH]c2cc1S(=O)(=O)Nc1ccc(OC(F)(F)F)cc1` [drawing 469 (R^2 = CH3)], for which the results for the EC50 in test [1] and in test [2] (LDH Assay EC50) were 37 nM and 14 nM, respectively.
